In patent US20250115598A1 (Anaxis Pharma Pty Ltd, priority 2021, published 2025):

Key:
endogenous MLKL in U937 = endogenous MLKL in U937 (Homo sapiens (Human), UniProt Q8NB16); experiment: Degradation assay: endogenous MLKL in U937 (western blot); settings: U937, 24 h incubation, read-out: Degradation of endogenous MLKL in U937 (DC50 cell-based assay)
Protocol: Degradation Assay: Screening Compounds Procedure to Evaluate the Activity of Compounds in Degrading Endogenous MLKL in Human and Mouse Cell
The mouse dermal fibroblast (MDF) cell line was seeded the day before the experiment in a 24-well plate at a cell density of […] per well in a volume of 0.5 mL per well and left to attach overnight. The human monocyte cell line (U937) was seeded on the day of the experiment in a 24-well plate at a cell density of […] per well in a volume of 0.5 mL per well.
The compound was diluted in DMSO with a starting concentration of 10 mM and titrated stepwise with a dilution of 1:5. 0.5 μL of the compound dilution was added to the appropriate well to achieve a final concentration of 10; 2; 0.4; 0.08 and 0.016 μM. A DMSO only well was included as control.
The cells were incubated for 24 h in the presence of the compound at 37° C. and 10% CO2.
After the 24 h incubation period, the medium was removed and cells washed with 0.5 mL PBS. The cells were then lysed directly in 60 μL of 1×SDS gel loading buffer.
The cell lysate was heat-denatured at […] for 10 min. 10 μL of lysate per well were run on 18-well 4-15% Criterion TGX stain free gels (BIO-RAD). The proteins were then transferred onto nitrocellulose membrane with a wet transfer protocol in the Criterion Blotter (BIO-RAD).
Membranes were blocked with 5% skim milk in TBST. Primary antibody against MLKL (clone 3H1, MABC604 Merck) was used at 1:2000 dilution in TBST with 1% BSA and left shaking over night at 4° C. After washes with TBST, the membranes were incubated with goat anti-rat IgG HRP-conjugated antibody (Southern Biotech) in 1% skim milk TBST at 1:10000 dilution for 1 h at room temperature. After TBST washes the bands were imaged on the ChemiDoc MP Imaging System (BIO-RAD) with Immobilion Western Chemiluminescent HRP Substrate Forte (Millipore). The loading control GAPDH was probed for with rabbit anti-GAPDH (CST 14C10) at 1:2000 dilution in 1% BSA TBST over night at 4° C. TBST washes were followed by incubation with goat anti-rabbit IgG HRP-conjugated antibody (Southern Biotech) in 1% skim milk TBST at 1:10000 dilution for 1 h at room temperature followed by TBST washes. The signal was detected as described above.
The band intensity was measured in the ImageLab Software (BIO-RAD) and the MLKL values adjusted for loading with GAPDH. The percentage of degradation was calculated by normalizing the compound treated values to the DMSO only control.

[1] = tested on: Immortalised Mouse Dermal Fibroblasts (MDFs); experiment: Cellular assay: inhibition of TSI induced necroptosis, CellTitre-Glo viability; settings: Mus musculus, Fibroblast; MDF, 3 hours TSI cocktail, Table 27; read-out: Inhibition of TSI-induced necroptosis (IC50 cell-based assay) in MDF
Procedure, shortened: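 Immortalised mouse dermal fibroblasts (2200 cells/well) pretreated 30 min with compound, 10-point 1:3 series from 36 μM, 0.3% DMSO. Then 3 h at 37° C. with TNF (100 ng/ml), Smac mimetic (500 nM) and IDN-6556 (10 μM). CellTiter-Glo luminescence normalised to DMSO (100%) and DMSO+TSI (0%); IC50 from 4-parameter logistic fit.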

endogenous MLKL in MDF = endogenous MLKL in MDF (Mus musculus (Mouse), UniProt Q9D2Y4); experiment: Degradation assay: endogenous MLKL in MDF (western blot); settings: MDF cells, 24 h incubation with compound, MLKL adjusted for loading with GAPDH, normalized to DMSO only control, read-out: Degradation of endogenous MLKL in MDF (DC50 cell-based assay)
Sequence of endogenous MLKL in MDF (Q9D2Y4 whole entry): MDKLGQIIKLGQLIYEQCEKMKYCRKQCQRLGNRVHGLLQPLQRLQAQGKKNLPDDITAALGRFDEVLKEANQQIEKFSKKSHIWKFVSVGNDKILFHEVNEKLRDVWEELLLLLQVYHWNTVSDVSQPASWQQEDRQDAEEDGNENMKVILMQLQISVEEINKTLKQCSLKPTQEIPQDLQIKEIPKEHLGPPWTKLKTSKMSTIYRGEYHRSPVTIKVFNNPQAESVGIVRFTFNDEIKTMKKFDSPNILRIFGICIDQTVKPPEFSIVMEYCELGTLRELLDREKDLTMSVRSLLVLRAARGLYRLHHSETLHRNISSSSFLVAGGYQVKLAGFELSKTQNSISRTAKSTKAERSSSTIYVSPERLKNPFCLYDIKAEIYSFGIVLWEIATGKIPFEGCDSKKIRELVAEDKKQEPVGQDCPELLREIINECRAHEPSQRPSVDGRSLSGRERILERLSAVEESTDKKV
Procedure, shortened: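 MDF (seeded the day before) or U937 cells were treated 24 h at 37 °C, 10% CO2 with compound at 10, 2, 0.4, 0.08 and 0.016 μM final. Endogenous MLKL was quantified by western blot (anti-MLKL 3H1), normalized to GAPDH. Percent degradation was taken relative to DMSO control.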

human MLKL (full length) = human MLKL (full length) (Homo sapiens (Human), UniProt Q8NB16); experiment: KINOMEscan binding assay, human MLKL (full length); settings: hMLKL, Table 25; read-out: MLKL (KD)
Sequence of human MLKL (full length) (Q8NB16 whole entry): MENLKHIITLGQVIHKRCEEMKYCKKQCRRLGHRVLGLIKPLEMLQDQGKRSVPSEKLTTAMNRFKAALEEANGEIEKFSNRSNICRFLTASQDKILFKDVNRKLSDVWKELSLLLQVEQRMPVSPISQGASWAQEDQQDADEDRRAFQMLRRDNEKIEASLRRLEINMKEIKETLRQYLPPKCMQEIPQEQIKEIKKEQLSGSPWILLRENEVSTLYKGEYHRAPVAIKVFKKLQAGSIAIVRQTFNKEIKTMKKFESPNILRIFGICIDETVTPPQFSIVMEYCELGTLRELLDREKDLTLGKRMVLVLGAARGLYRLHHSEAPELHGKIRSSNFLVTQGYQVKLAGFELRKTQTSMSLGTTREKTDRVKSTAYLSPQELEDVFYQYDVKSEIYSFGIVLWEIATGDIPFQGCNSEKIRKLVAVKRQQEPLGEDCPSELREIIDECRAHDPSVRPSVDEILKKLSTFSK
Procedure, shortened: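 Kd values come from dose-response fits to the Hill equation (Hill slope −1, Levenberg–Marquardt least squares). Compound competed with bead-bound ligand for tagged kinase, and remaining kinase was measured by qPCR after elution. Dilution series: 11 points, 3-fold, 1% DMSO final, top 30,000 nM in most runs.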

Sequence of endogenous MLKL in U937 (Q8NB16 whole entry): as above

Row | Compound | DC50 (endogenous MLKL in U937) [nM] | DC50 (endogenous MLKL in MDF) [nM] | Kd (human MLKL (full length)) [nM] | IC50 [1] [nM]
1 | CCS(=O)(=O)Nc1ccc(-c2nn(C)c3c(-c4cnn(C5CCN(C(=O)CCC6CCN(c7cccc8c7C(=O)N(C7CCC(=O)NC7=O)C8=O)CC6)CC5)c4)cnc(N)c23)cc1F (stereo not drawn) [Compound 1088, N-[4-(4-amino-7-{1-[1-(3-{1-[2-(2,6-dioxopiperidin-3-yl)-1,3-dioxo-2,3-dihydro-1H-isoindol-4-yl]piperidin-4-yl}propanoyl)piperidin-4-yl]-1H-pyrazol-4-yl}-1-methyl-1H-pyrazolo[4,3-c]pyridin-3-yl}-2-fluorophenyl]ethane-1-sulfonamide] | < 1000 | < 1000 | < 10 | < 1000
2 | CCS(=O)(=O)Nc1ccc(-c2nn(C)c3c(-c4cnn(CCCCCCCOc5cccc6c5C(=O)N(C5CCC(=O)NC5=O)C6=O)c4)cnc(N)c23)cc1F (stereo not drawn) [Compound 1059, N-(4-{4-amino-7-[1-(7-{[2-(2,6-dioxopiperidin-3-yl)-1,3-dioxo-2,3-dihydro-1H-isoindol-4-yl]oxy}heptyl)-1H-pyrazol-4-yl]-1-methyl-1H-pyrazolo[4,3-c]pyridin-3-yl}-2-fluorophenyl)ethane-1-sulfonamide] | < 1000 | < 1000 | < 10 | –
3 | Cn1nc(-c2ccc(NS(=O)(=O)C(F)F)c(F)c2)c2c(N)ncc(-c3cnn(C4CCN(C(=O)[C@H]5C[C@H](Nc6cccc7c6C(=O)N(C6CCC(=O)NC6=O)C7=O)C5)CC4)c3)c21 (stereo partly drawn) [Compound 1114, N-{4-[4-amino-1-methyl-7-(1-{1-[(trans)-3-{[2-(2,6-dioxopiperidin-3-yl)-1,3-dioxo-2,3-dihydro-1H-isoindol-4-yl]amino}cyclobutanecarbonyl]piperidin-4-yl}-1H-pyrazol-4-yl)-1H-pyrazolo[4,3-c]pyridin-3-yl]-2-fluorophenyl}-1,1-difluoromethanesulfonamide] | < 1000 | < 1000 | < 10 | –
4 | Cc1ncsc1-c1ccc(CNC(=O)[C@@H]2C[C@@H](O)CN2C(=O)[C@@H](NC(=O)COCCCCn2cc(-c3cnc(N)c4c(-c5ccc(NS(=O)(=O)C(F)F)c(O[C@@H](C)c6ccc(F)cc6)c5)nn(C)c34)cn2)C(C)(C)C)cc1 [Compound 1056, (2S,4R)-1-[(2S)-2-{2-[4-(4-{4-amino-3-[4-(difluoromethanesulfonamido)-3-[(1S)-1-(4-fluorophenyl)ethoxy]phenyl]-1-methyl-1H-pyrazolo[4,3-c]pyridin-7-yl}-1H-pyrazol-1-yl)butoxy]acetamido}-3,3-dimethylbutanoyl]-4-hydroxy-N-{[4-(4-methyl-1,3-thiazol-5-yl)phenyl]methyl}pyrrolidine-2-carboxamide] | < 1000 | 1000 to 10000 | 10 to 1000 | –

More lines, main results first:

Row | DC50 (endogenous MLKL in U937) [nM] | DC50 (endogenous MLKL in MDF) [nM] | Kd (human MLKL (full length)) [nM] | Compound | IC50 [1] [nM]
5 | < 1000 | < 1000 | – | C[C@H](Oc1cc(-c2nn(C)c3c(-c4cnn(C5CCN(C(=O)N6CC(Nc7cccc8c7C(=O)N(C7CCC(=O)NC7=O)C8=O)C6)CC5)c4)cnc(N)c23)ccc1NS(=O)(=O)C(F)F)c1ccc(F)cc1 (stereo partly drawn) [Compound 1124, N-[4-(4-amino-7-{1-[1-(3-{[2-(2,6-dioxopiperidin-3-yl)-1,3-dioxo-2,3-dihydro-1H-isoindol-4-yl]amino}azetidine-1-carbonyl)piperidin-4-yl]-1H-pyrazol-4-yl}-1-methyl-1H-pyrazolo[4,3-c]pyridin-3-yl}-2-[(1S)-1-(4-fluorophenyl)ethoxy]phenyl]-1,1-difluoromethanesulfonamide] | < 1000
6 | 1000 to 10000 | – | – | C[C@H](Oc1cc(-c2nn(C)c3c(-c4cnn(C5CCN(C(=O)C6CCCN(c7cccc8c7C(=O)N(C7CCC(=O)NC7=O)C8=O)C6)CC5)c4)cnc(N)c23)ccc1NS(=O)(=O)C(F)F)c1ccc(F)cc1 (stereo partly drawn) [Compound 1077, N-(4-{4-amino-7-[1-(1-{1-[2-(2,6-dioxopiperidin-3-yl)-1,3-dioxo-2,3-dihydro-1H-isoindol-4-yl]piperidine-3-carbonyl}piperidin-4-yl)-1H-pyrazol-4-yl]-1-methyl-1H-pyrazolo[4,3-c]pyridin-3-yl}-2-[(1S)-1-(4-fluorophenyl)ethoxy]phenyl)-1,1-difluoromethane-sulfonamide] | 1000 to 10000
7 | < 1000 | 1000 to 10000 | 10 to 1000 | Cc1ncsc1-c1ccc(CNC(=O)[C@@H]2C[C@@H](O)CN2C(=O)[C@@H](NC(=O)CCCCCOc2ccc(-c3cnc(N)c4c(-c5ccc(NS(=O)(=O)C(F)F)c(O[C@@H](C)c6ccc(F)cc6)c5)nn(C)c34)cn2)C(C)(C)C)cc1 [Compound 1050, (2S,4R)-1-[(2S)-2-{6-[(5-{4-amino-3-[4-(difluoromethanesulfonamido)-3-[(1S)-1-(4-fluorophenyl)ethoxy]phenyl]-1-methyl-1H-pyrazolo[4,3-c]pyridin-7-yl}pyridin-2-yl)oxy]hexanamido}-3,3-dimethylbutanoyl]-4-hydroxy-N-{[4-(4-methyl-1,3-thiazol-5-yl)phenyl]methyl}pyrrolidine-2-carboxamide] | –
8 | < 1000 | < 1000 | – | Cc1ncsc1-c1ccc(C(COCC(=O)N2CCC(n3cc(-c4cnc(N)c5c(-c6ccc(NS(=O)(=O)C(F)F)c(O[C@@H](C)c7ccc(F)cc7)c6)nn(C)c45)cn3)CC2)NC(=O)[C@@H]2C[C@@H](O)CN2C(=O)[C@@H](NC(=O)C2(F)CC2)C(C)(C)C)cc1 (stereo partly drawn) [Compound 1104, (2S,4R)—N-(2-{2-[4-(4-{4-amino-3-[4-(difluoromethanesulfonamido)-3-[(1 S)-1-(4-fluorophenyl)ethoxy]phenyl]-1-methyl-1H-pyrazolo[4,3-c]pyridin-7-yl}-1H-pyrazol-1-yl)piperidin-1-yl]-2-oxoethoxy}-1-[4-(4-methyl-1,3-thiazol-5-yl)phenyl]ethyl)-1-[(2S)-2-[(1-fluorocyclopropyl)formamido]-3,3-dimethylbutanoyl]-4-hydroxypyrrolidine-2-carboxamide] | 1000 to 10000
9 | 1000 to 10000 | < 1000 | 10 to 1000 | Cc1ncsc1-c1ccc(CNC(=O)[C@@H]2C[C@@H](O)CN2C(=O)[C@@H](NC(=O)C2(F)CC2)C(C)(C)C)c(OCCCCCCCCCn2cc(-c3cnc(N)c4c(-c5ccc(NS(=O)(=O)C(F)F)c(O[C@@H](C)c6ccc(F)cc6)c5)nn(C)c34)cn2)c1 [Compound 1041, (2S,4R)-N-[(2-{[9-(4-{4-amino-3-[4-(difluoromethanesulfonamido)-3-[(1S)-1-(4-fluorophenyl)ethoxy]phenyl]-1-methyl-1H-pyrazolo[4,3-c]pyridin-7-yl}-1H-pyrazol-1-yl)nonyl]oxy}-4-(4-methyl-1,3-thiazol-5-yl)phenyl)methyl]-1-[(2S)-2-[(1-fluorocyclopropyl)formamido]-3,3-dimethylbutanoyl]-4-hydroxypyrrolidine-2-carboxamide] | –
